# Reference: patent publication US20120245188A1, “METHODS OF TREATING MEMORY LOSS AND ENHANCING MEMORY PERFORMANCE” (priority 2010, published 2012)
# Assays:
# [1] = system: seventeen month old male Fischer-344 rats; experiment: Spatial reference memory, Morris Water Maze in aged rats; assay type: in vivo, rat
# Excerpt: Working memory can also be tested using the Morris water maze. In general, the Morris water maze is a large round tub of opaque water with […] located 1-2 cm under the water's surface. The rat is placed on a start platform. The rat swims around until it finds the other platform to stand on. External cues, such as patterns or the standing researcher, are placed around the pool in the same spot every time to help the rat learn where the end platform is. The researcher measures how long it takes for a rat to find hidden platform, by changing or moving and using different spatial cues. The Morris water maze tests the spatial learning, cognitive maps and memory. The rats under the Morris water maze test may be given particular drugs or treatment conditions to see if these impair or enhance short-term memory. In one embodiment, the subject may be administered a pharmaceutical composition comprising SB 239063. The role of SB239063 on spatial memory performance was tested in the aged rat model. […] Dosing was initiated three days prior to testing and continued throughout the experiment until sacrifice (FIG. 1). Rats were tested on a maze battery including the spatial reference memory Morris maze (MM), and a delay match to sample task (DMS) where the spatial location of the platform needed to be updated on a daily basis, thereby evaluating short term memory (FIG. 2). Spatial Reference Memory—Morris Water Maze: For the Morris Water Maze, 6 trials per day for 3 days were carried out. […] Mean (±Standard Error) swim distance across all days of testing for all rats are depicted in FIG. 3.
# [2] = system: adjuvant-induced arthritis; details: 10 mg/kg, administered orally, rats; cited from earlier work
# cultured neurons = details: cited from earlier work
# β form of p38 MAPK = β form of p38 MAPK (Homo sapiens, UniProt Q15759); details: cited from earlier work
# Sequence of β form of p38 MAPK (Q15759 whole entry): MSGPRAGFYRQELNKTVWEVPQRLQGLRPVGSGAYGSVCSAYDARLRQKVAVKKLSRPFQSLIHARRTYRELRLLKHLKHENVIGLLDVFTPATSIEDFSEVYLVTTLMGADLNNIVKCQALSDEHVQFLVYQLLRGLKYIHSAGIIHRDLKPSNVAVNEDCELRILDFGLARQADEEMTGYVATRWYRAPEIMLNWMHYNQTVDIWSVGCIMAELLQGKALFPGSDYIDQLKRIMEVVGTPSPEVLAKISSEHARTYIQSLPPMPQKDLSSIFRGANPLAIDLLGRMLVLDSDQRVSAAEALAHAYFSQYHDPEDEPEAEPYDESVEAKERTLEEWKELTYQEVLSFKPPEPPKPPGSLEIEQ
# [3] = system: seventeen month old male Fischer-344 rats; experiment: Working memory, Delay Match to Sample water maze in aged rats; assay type: in vivo, rat; details: high dose 30 mg/kg/day i.p.
# Procedure: Other methods of evaluating spatial and visual working memory include Delayed-Match to Sample (DMS) asymmetrical 3-choice task, which is illustrated in detail in the Example section. The visible platform task was used to confirm that animals have the ability to perform the procedural components of water-escape maze testing, including the visual and motoric capacities necessary to swim towards and climb onto a platform. The role of SB239063 on spatial memory performance was tested in the aged rat model. […] Dosing was initiated three days prior to testing and continued throughout the experiment until sacrifice (FIG. 1). Rats were tested on a maze battery including the spatial reference memory Morris maze (MM), and a delay match to sample task (DMS) where the spatial location of the platform needed to be updated on a daily basis, thereby evaluating short term memory (FIG. 2). […] There was a significant Trial×Treatment Interaction in the process, and the swim distance F(5,10)=2.298 (p=0.0151). The high-dose receiving group learned the task faster, indicated by committing fewer errors compared to vehicle-only rats on trial 3 (FIG. 4B).
# moderate stroke = details: oral administration of 15 mg/kg before moderate stroke; cited from earlier work
smiles,measurement,setting,value
"COc1nccc(-c2c(-c3ccc(F)cc3)ncn2[C@H]2CC[C@H](O)CC2)n1 [SB239063, trans-1-(4-hydroxycyclohexyl)-4-(4-fluorophenyl)-5-(2-methoxypyridimidin-4-yl)imidazole]",localization to the platformed quadrant during the probe trial by the last day of testing,"[1]; all groups (15 and 30 mg/kg), p<0.005",localized to the platformed quadrant
same,linear trend for swim distance scores across days,"[1]; high dose 30 mg/kg daily i.p., F(1,10)=1.531, p=0.244",did not show a linear trend
same,Morris Water Maze spatial reference memory performance as days progressed,[1]; high dose 30 mg/kg/day i.p.,impaired
same,linear trend for swim distance scores across days,"[1]; low dose 15 mg/kg daily i.p., F(1,10)=19.253, p=0.001",showed a significant linear trend
same,Morris Water Maze spatial reference memory performance as days progressed,[1]; low dose 15 mg/kg/day i.p.,exhibited significant learning
same,reduction of adjuvant-induced arthritis,[2],51%
same,protection against mild excitotoxic neuronal injury caused by NMDA,cultured neurons; NMDA (N-methyl D-aspartate),protect against mild excitotoxic neuronal injury
same,protection against cell death induced by oxygen glucose deprivation (OGD) or magnesium deprivation,cultured neurons; cultured neurons,substantial protection against cell death
same,inhibition of β form of p38 MAPK,β form of p38 MAPK,inhibits
same,Three Choice Task errors on trial 3 compared to vehicle-only rats,[3]; Fisher post hoc p=0.011,fewer errors
same,performance on DMS compared to vehicle-treated animals (learning of the new platform location),[3]; p=0.01,enhanced performance
same,reduction of infarct volume,moderate stroke,48%
same,reduction of neurological deficits,moderate stroke,42%
